Measurements: PubChem BioAssay (NCI)
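Following 48 hours of exposure in 96-well plates, responses at five concentrations were used to interpolate endpoints linearly. Definition used: TGI = concentration required for complete inhibition of growth.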

Assays:
Experiment in all cases: inhibition of tumour cell growth, NCI panel, 48 h
RPMI-8226 leukemia = tested on: RPMI-8226 leukemia
OVCAR-5 ovarian = tested on: OVCAR-5 ovarian
SW-620 colon = tested on: SW-620 colon
NCI-H460 lung = tested on: NCI-H460 lung
NCI-H522 lung = tested on: NCI-H522 lung
M14 melanoma = tested on: M14 melanoma
SK-MEL-28 melanoma = tested on: SK-MEL-28 melanoma
U251 CNS = tested on: U251 CNS
TK-10 renal = tested on: TK-10 renal
A549 NSCLC = tested on: A549 NSCLC
786-0 renal = tested on: 786-0 renal
M19-MEL melanoma = tested on: M19-MEL melanoma
HCC-2998 colon = tested on: HCC-2998 colon
RXF 393 renal = tested on: RXF 393 renal
SR leukemia = tested on: SR leukemia
A498 renal = tested on: A498 renal
HOP-62 NSCLC = tested on: HOP-62 NSCLC
UACC-62 melanoma = tested on: UACC-62 melanoma
NCI-H23 lung = tested on: NCI-H23 lung
MOLT-4 leukemia = tested on: MOLT-4 leukemia
K-562 leukemia = tested on: K-562 leukemia
UO-31 renal = tested on: UO-31 renal
SNB-75 CNS = tested on: SNB-75 CNS
KM12 colon = tested on: KM12 colon
CCRF-CEM leukemia = tested on: CCRF-CEM leukemia
SF-539 CNS = tested on: SF-539 CNS
HT29 colon = tested on: HT29 colon
DMS 114 small cell lung = tested on: DMS 114 small cell lung
MALME-3M melanoma = tested on: MALME-3M melanoma
HOP-92 NSCLC = tested on: HOP-92 NSCLC
COLO 205 colon = tested on: COLO 205 colon
UACC-257 melanoma = tested on: UACC-257 melanoma
SF-295 CNS = tested on: SF-295 CNS
OVCAR-3 ovarian = tested on: OVCAR-3 ovarian
HCT-15 colon = tested on: HCT-15 colon
SK-MEL-2 melanoma = tested on: SK-MEL-2 melanoma
OVCAR-4 ovarian = tested on: OVCAR-4 ovarian
CAKI-1 renal = tested on: CAKI-1 renal
KM20L2 colon = tested on: KM20L2 colon
SN12C renal = tested on: SN12C renal
EKVX NSCLC = tested on: EKVX NSCLC
LOX IMVI melanoma = tested on: LOX IMVI melanoma
ACHN renal = tested on: ACHN renal
HCT-116 colon = tested on: HCT-116 colon
SNB-19 CNS = tested on: SNB-19 CNS
DMS 273 small cell lung = tested on: DMS 273 small cell lung
SK-OV-3 ovarian = tested on: SK-OV-3 ovarian
SF-268 CNS = tested on: SF-268 CNS
NCI-H226 lung = tested on: NCI-H226 lung
HL-60(TB) leukemia = tested on: HL-60(TB) leukemia
SK-MEL-5 melanoma = tested on: SK-MEL-5 melanoma
OVCAR-8 ovarian = tested on: OVCAR-8 ovarian
IGROV1 ovarian = tested on: IGROV1 ovarian
MDA-N = tested on: MDA-N
LXFL 529 NSCLC = tested on: LXFL 529 NSCLC
PC-3 prostate = tested on: PC-3 prostate
T-47D breast = tested on: T-47D breast
MDA-MB-231 breast = tested on: MDA-MB-231 breast
NCI/ADR-RES ovarian = tested on: NCI/ADR-RES ovarian
MDA-MB-435 = tested on: MDA-MB-435
BT-549 breast = tested on: BT-549 breast
SNB-78 CNS = tested on: SNB-78 CNS
DU-145 prostate = tested on: DU-145 prostate
MCF7 breast = tested on: MCF7 breast
DLD-1 colon = tested on: DLD-1 colon

## COc1ccccc1C=NC12CC3CC(CC(C3)C1)C2
RPMI-8226 leukemia
  TGI: > 100 µM
OVCAR-5 ovarian
  TGI: > 100 µM
SW-620 colon
  TGI: > 100 µM
NCI-H460 lung
  TGI: > 100 µM
NCI-H522 lung
  TGI: > 100 µM
M14 melanoma
  TGI: > 100 µM
SK-MEL-28 melanoma
  TGI: > 100 µM
U251 CNS
  TGI: > 100 µM
TK-10 renal
  TGI: > 100 µM
A549 NSCLC
  TGI: > 100 µM
786-0 renal
  TGI: > 100 µM
M19-MEL melanoma
  TGI: > 100 µM
HCC-2998 colon
  TGI: > 100 µM
RXF 393 renal
  TGI: > 100 µM
SR leukemia
  TGI: > 100 µM
A498 renal
  TGI: > 100 µM
HOP-62 NSCLC
  TGI: > 100 µM
UACC-62 melanoma
  TGI: > 100 µM
NCI-H23 lung
  TGI: > 100 µM
MOLT-4 leukemia
  TGI: > 100 µM
K-562 leukemia
  TGI: > 100 µM
UO-31 renal
  TGI: > 100 µM
SNB-75 CNS
  TGI: > 100 µM
KM12 colon
  TGI: > 100 µM
CCRF-CEM leukemia
  TGI: > 100 µM
SF-539 CNS
  TGI: > 100 µM
HT29 colon
  TGI: > 100 µM
DMS 114 small cell lung
  TGI: > 10 µM
MALME-3M melanoma
  TGI: > 100 µM
HOP-92 NSCLC
  TGI: > 100 µM
COLO 205 colon
  TGI: > 100 µM
UACC-257 melanoma
  TGI: > 100 µM
SF-295 CNS
  TGI: > 100 µM
OVCAR-3 ovarian
  TGI: > 100 µM
HCT-15 colon
  TGI: > 100 µM
SK-MEL-2 melanoma
  TGI: > 100 µM
OVCAR-4 ovarian
  TGI: > 100 µM
CAKI-1 renal
  TGI: > 100 µM
KM20L2 colon
  TGI: > 100 µM
SN12C renal
  TGI: > 100 µM
EKVX NSCLC
  TGI: > 100 µM
LOX IMVI melanoma
  TGI: > 100 µM
ACHN renal
  TGI: > 100 µM
HCT-116 colon
  TGI: > 10 µM
SNB-19 CNS
  TGI: > 100 µM
DMS 273 small cell lung
  TGI: > 100 µM
SK-OV-3 ovarian
  TGI: > 100 µM
SF-268 CNS
  TGI: > 100 µM
NCI-H226 lung
  TGI: > 10 µM
HL-60(TB) leukemia
  TGI: > 100 µM
SK-MEL-5 melanoma
  TGI: > 100 µM
OVCAR-8 ovarian
  TGI: > 100 µM

## CC(C)Cn1cnc2c(Sc3c([N+](=O)[O-])ncn3C)nc(N)nc21
RPMI-8226 leukemia
  TGI: > 100 µM
OVCAR-5 ovarian
  TGI: > 100 µM
SW-620 colon
  TGI: > 100 µM
NCI-H460 lung
  TGI: > 100 µM
NCI-H522 lung
  TGI: 89.1 µM
IGROV1 ovarian
  TGI: > 100 µM
M14 melanoma
  TGI: > 100 µM
SK-MEL-28 melanoma
  TGI: > 100 µM
U251 CNS
  TGI: > 100 µM
TK-10 renal
  TGI: > 100 µM
A549 NSCLC
  TGI: > 100 µM
MDA-N
  TGI: > 100 µM
LXFL 529 NSCLC
  TGI: > 100 µM
786-0 renal
  TGI: > 100 µM
M19-MEL melanoma
  TGI: > 100 µM
HCC-2998 colon
  TGI: > 100 µM
PC-3 prostate
  TGI: > 100 µM
T-47D breast
  TGI: > 100 µM
RXF 393 renal
  TGI: > 100 µM
SR leukemia
  TGI: > 100 µM
A498 renal
  TGI: > 100 µM
HOP-62 NSCLC
  TGI: > 100 µM
UACC-62 melanoma
  TGI: > 100 µM
NCI-H23 lung
  TGI: > 100 µM
MOLT-4 leukemia
  TGI: > 100 µM
K-562 leukemia
  TGI: > 100 µM
UO-31 renal
  TGI: > 75 µM
SNB-75 CNS
  TGI: > 100 µM
KM12 colon
  TGI: > 100 µM
CCRF-CEM leukemia
  TGI: > 100 µM
MDA-MB-231 breast
  TGI: > 100 µM
SF-539 CNS
  TGI: > 100 µM
HT29 colon
  TGI: > 100 µM
DMS 114 small cell lung
  TGI: > 100 µM
MALME-3M melanoma
  TGI: > 59.8 µM
HOP-92 NSCLC
  TGI: 36.9 µM
COLO 205 colon
  TGI: > 62.9 µM
UACC-257 melanoma
  TGI: > 100 µM
SF-295 CNS
  TGI: > 100 µM
OVCAR-3 ovarian
  TGI: > 57.4 µM
HCT-15 colon
  TGI: > 100 µM
SK-MEL-2 melanoma
  TGI: 81.9 µM
OVCAR-4 ovarian
  TGI: > 100 µM
CAKI-1 renal
  TGI: > 100 µM
NCI/ADR-RES ovarian
  TGI: > 100 µM
MDA-MB-435
  TGI: > 100 µM
KM20L2 colon
  TGI: > 100 µM
SN12C renal
  TGI: > 100 µM
EKVX NSCLC
  TGI: > 100 µM
LOX IMVI melanoma
  TGI: > 100 µM
ACHN renal
  TGI: > 100 µM
HCT-116 colon
  TGI: > 100 µM
BT-549 breast
  TGI: > 100 µM
SNB-78 CNS
  TGI: > 100 µM
SNB-19 CNS
  TGI: > 100 µM
DMS 273 small cell lung
  TGI: > 100 µM
DU-145 prostate
  TGI: > 100 µM
SK-OV-3 ovarian
  TGI: > 100 µM
SF-268 CNS
  TGI: > 100 µM
MCF7 breast
  TGI: > 100 µM
NCI-H226 lung
  TGI: > 100 µM
HL-60(TB) leukemia
  TGI: > 100 µM
SK-MEL-5 melanoma
  TGI: > 100 µM
OVCAR-8 ovarian
  TGI: > 100 µM

## C#CCC(O)c1ccccc1C(O)CC#C (stereo not given)
RPMI-8226 leukemia
  TGI: > 100 µM
OVCAR-5 ovarian
  TGI: > 100 µM
SW-620 colon
  TGI: > 100 µM
NCI-H460 lung
  TGI: > 100 µM
NCI-H522 lung
  TGI: > 100 µM
IGROV1 ovarian
  TGI: > 100 µM
M14 melanoma
  TGI: > 100 µM
SK-MEL-28 melanoma
  TGI: > 100 µM
TK-10 renal
  TGI: > 100 µM
A549 NSCLC
  TGI: > 100 µM
LXFL 529 NSCLC
  TGI: > 100 µM
786-0 renal
  TGI: > 100 µM
M19-MEL melanoma
  TGI: > 100 µM
HCC-2998 colon
  TGI: > 100 µM
RXF 393 renal
  TGI: 95.2 µM
HOP-62 NSCLC
  TGI: > 100 µM
UACC-62 melanoma
  TGI: > 100 µM
NCI-H23 lung
  TGI: > 100 µM
MOLT-4 leukemia
  TGI: > 100 µM
K-562 leukemia
  TGI: > 100 µM
UO-31 renal
  TGI: > 100 µM
SNB-75 CNS
  TGI: > 100 µM
KM12 colon
  TGI: > 100 µM
CCRF-CEM leukemia
  TGI: > 100 µM
HT29 colon
  TGI: > 100 µM
DMS 114 small cell lung
  TGI: > 100 µM
MALME-3M melanoma
  TGI: > 100 µM
HOP-92 NSCLC
  TGI: > 100 µM
COLO 205 colon
  TGI: > 100 µM
UACC-257 melanoma
  TGI: > 100 µM
SF-295 CNS
  TGI: > 100 µM
OVCAR-3 ovarian
  TGI: > 100 µM
HCT-15 colon
  TGI: > 100 µM
SK-MEL-2 melanoma
  TGI: > 100 µM
OVCAR-4 ovarian
  TGI: > 100 µM
CAKI-1 renal
  TGI: > 100 µM
DLD-1 colon
  TGI: > 100 µM
KM20L2 colon
  TGI: > 100 µM
SN12C renal
  TGI: > 100 µM
EKVX NSCLC
  TGI: > 100 µM
LOX IMVI melanoma
  TGI: > 100 µM
ACHN renal
  TGI: > 100 µM
SNB-78 CNS
  TGI: > 100 µM
SNB-19 CNS
  TGI: > 100 µM
DMS 273 small cell lung
  TGI: > 100 µM
SK-OV-3 ovarian
  TGI: > 100 µM
HL-60(TB) leukemia
  TGI: > 100 µM
SK-MEL-5 melanoma
  TGI: > 100 µM
OVCAR-8 ovarian
  TGI: > 100 µM
